Paper PMC10033419, “Blocking NS3–NS4B interaction inhibits dengue virus in non-human primates” (Nature, 2023)

System: DENV-1/45AZ5
Experiment: NHP DENV-1 study, serum viral RNA RT-qPCR
Type: in vivo, rhesus macaques
Method: WRAIR is fully accredited by AAALAC International.
Serum samples from macaques were checked for the presence of DENV-1 RNA. Viral RNA for RT–qPCR was extracted from 100–200 µl of serum using the QIAcube instrumentation and the QIAGEN Viral RNA extraction kits. The primers and fluorogenic probes used in the RT–qPCR assays have been previously described[63],[64]. DENV-1 RNA was detected in a 25 µl reaction containing 5 µl of extracted RNA sample, 10 pmol of dengue-specific primers and 5 pmol dengue probe in the reaction mixture from Superscript Ill Platinum One-Step Quantitative RT-PCR Kit (Invitrogen, Thermo Fisher Scientific), consisting of 0.5 µl Superscript III RT/Platinum mix, 12.5 µl 2× reaction mix and 0.05 µl ROX reference dye. The one-step RT–qPCR comprises a 30 min RT step at 50 °C and 2 min of Taq polymerase activation at 94 °C, followed by 40 cycles of PCR at 94 °C for 5 s and 53 °C for 35 s performed in an ABI 7500DX Fast Real Time PCR system. Each assay included positive, negative and non-template controls. The RNA copy number was calculated from a standard curve of tenfold serial dilutions made from RNA in vitro transcripts consisting of DENV-1 with known copy numbers. The LLOQ was 100 genomic copies per reaction.
This sample size was sufficient to detect a significant difference in the number of infected animals in each of the groups as low as 83%. […] Sample processing and conducting of assays was performed by laboratory technicians not involved in the treatment/manipulation of the animals.

For `COc1cc(N[C@H](C(=O)c2c[nH]c3ccc(OC(F)(F)F)cc23)c2ccc(Cl)cc2OC)cc(S(C)(=O)=O)c1` [JNJ-1802], the “qRT-PCR Assay Average GE/mL” value (animal R9, Day 29, LOQ 100 GE/reaction) was 0.00E+00 GE/mL, the “qRT-PCR Assay Result” value (animal R10, Day 0) was “Negative” and the “qRT-PCR Assay Average GE/mL” value (animal R10, Day 0, Assay LOQ = 100 GE/reaction) was 0.00E+00 GE/mL. The “qRT-PCR Assay Result” value (animal R10, Day 1) was “Negative”, the “qRT-PCR Assay Average GE/mL” value (animal R10, Day 1, Assay LOQ = 100 GE/reaction) was 0.00E+00 GE/mL and the “qRT-PCR Assay Result” value (animal R10, Day 2) was “Negative”. For the same molecule, the “qRT-PCR Assay Average GE/mL” value (animal R10, Day 2, Assay LOQ = 100 GE/reaction) was 0.00E+00 GE/mL, the “qRT-PCR Assay Result” value (animal R10, Day 3) was “Negative” and the “qRT-PCR Assay Average GE/mL” value (animal R10, Day 3, Assay LOQ = 100 GE/reaction) was 0.00E+00 GE/mL. For the same molecule, the “qRT-PCR Assay Result” value (animal R10, Day 4) was “Negative”, the “qRT-PCR Assay Average GE/mL” value (animal R10, Day 4, Assay LOQ = 100 GE/reaction) was 0.00E+00 GE/mL and the “qRT-PCR Assay Result” value (animal R10, Day 5) was “Negative”. The “qRT-PCR Assay Average GE/mL” value (animal R10, Day 5, Assay LOQ = 100 GE/reaction) was 0.00E+00 GE/mL, the “qRT-PCR Assay Result” value (animal R10, Day 6) was “Negative” and the “qRT-PCR Assay Average GE/mL” value (animal R10, Day 6, Assay LOQ = 100 GE/reaction) was 0.00E+00 GE/mL. The “qRT-PCR Assay Result” value (animal R10, Day 7) was “Negative”, the “qRT-PCR Assay Average GE/mL” value (animal R10, Day 7, Assay LOQ = 100 GE/reaction) was 0.00E+00 GE/mL and the “qRT-PCR Assay Result” value (animal R10, Day 8) was “Negative”. The “qRT-PCR Assay Average GE/mL” value (animal R10, Day 8, Assay LOQ = 100 GE/reaction) was 0.00E+00 GE/mL, the “qRT-PCR Assay Result” value (animal R10, Day 9) was “Negative” and the “qRT-PCR Assay Average GE/mL” value (animal R10, Day 9, Assay LOQ = 100 GE/reaction) was 0.00E+00 GE/mL. The “qRT-PCR Assay Result” value (animal R10, Day 10) was “Negative”, the “qRT-PCR Assay Average GE/mL” value (animal R10, Day 10, Assay LOQ = 100 GE/reaction) was 0.00E+00 GE/mL and the “qRT-PCR Assay Result” value (animal R10, Day 11) was “Negative”. For the same molecule, the “qRT-PCR Assay Average GE/mL” value (animal R10, Day 11, Assay LOQ = 100 GE/reaction) was 0.00E+00 GE/mL, the “qRT-PCR Assay Result” value (animal R10, Day 14) was “Negative” and the “qRT-PCR Assay Average GE/mL” value (animal R10, Day 14, Assay LOQ = 100 GE/reaction) was 0.00E+00 GE/mL. For the same molecule, the “qRT-PCR Assay Result” value (animal R10, Day 29) was “Negative”, the “qRT-PCR Assay Average GE/mL” value (animal R10, Day 29, Assay LOQ = 100 GE/reaction) was 0.00E+00 GE/mL and the “qRT-PCR Assay Result” value (animal R11, Day 0) was “Negative”. For the same molecule, the “qRT-PCR Assay Average GE/mL” value (animal R11, Day 0, Assay LOQ = 100 GE/reaction) was 0.00E+00 GE/mL, the “qRT-PCR Assay Result” value (animal R11, Day 1) was “Negative” and the “qRT-PCR Assay Average GE/mL” value (animal R11, Day 1, Assay LOQ = 100 GE/reaction) was 0.00E+00 GE/mL. The “qRT-PCR Assay Result” value (animal R11, Day 2) was “Negative”, the “qRT-PCR Assay Average GE/mL” value (animal R11, Day 2, Assay LOQ = 100 GE/reaction) was 0.00E+00 GE/mL and the “qRT-PCR Assay Result” value (animal R11, Day 3) was “Negative”. The “qRT-PCR Assay Average GE/mL” value (animal R11, Day 3, Assay LOQ = 100 GE/reaction) was 0.00E+00 GE/mL, the “qRT-PCR Assay Result” value (animal R11, Day 4) was “Negative” and the “qRT-PCR Assay Average GE/mL” value (animal R11, Day 4, Assay LOQ = 100 GE/reaction) was 0.00E+00 GE/mL. For the same molecule, the “qRT-PCR Assay Result” value (animal R11, Day 5) was “Negative”, the “qRT-PCR Assay Average GE/mL” value (animal R11, Day 5, Assay LOQ = 100 GE/reaction) was 0.00E+00 GE/mL and the “qRT-PCR Assay Result” value (animal R11, Day 6) was “Negative”. For the same molecule, the “qRT-PCR Assay Average GE/mL” value (animal R11, Day 6, Assay LOQ = 100 GE/reaction) was 0.00E+00 GE/mL, the “qRT-PCR Assay Result” value (animal R11, Day 7) was “Negative” and the “qRT-PCR Assay Average GE/mL” value (animal R11, Day 7, Assay LOQ = 100 GE/reaction) was 0.00E+00 GE/mL. For the same molecule, the “qRT-PCR Assay Result” value (animal R11, Day 8) was “Negative”, the “qRT-PCR Assay Average GE/mL” value (animal R11, Day 8, Assay LOQ = 100 GE/reaction) was 0.00E+00 GE/mL and the “qRT-PCR Assay Result” value (animal R11, Day 9) was “Negative”. The “qRT-PCR Assay Average GE/mL” value (animal R11, Day 9, Assay LOQ = 100 GE/reaction) was 0.00E+00 GE/mL, the “qRT-PCR Assay Result” value (animal R11, Day 10) was “Negative” and the “qRT-PCR Assay Average GE/mL” value (animal R11, Day 10, Assay LOQ = 100 GE/reaction) was 0.00E+00 GE/mL. For the same molecule, the “qRT-PCR Assay Result” value (animal R11, Day 11) was “Negative”, the “qRT-PCR Assay Average GE/mL” value (animal R11, Day 11, Assay LOQ = 100 GE/reaction) was 0.00E+00 GE/mL and the “qRT-PCR Assay Result” value (animal R11, Day 14) was “Negative”. For the same molecule, the “qRT-PCR Assay Average GE/mL” value (animal R11, Day 14, Assay LOQ = 100 GE/reaction) was 0.00E+00 GE/mL, the “qRT-PCR Assay Result” value (animal R11, Day 29) was “Negative” and the “qRT-PCR Assay Average GE/mL” value (animal R11, Day 29, Assay LOQ = 100 GE/reaction) was 0.00E+00 GE/mL. The “qRT-PCR Assay Result” value (animal R12, Day 0) was “Negative”, the “qRT-PCR Assay Average GE/mL” value (animal R12, Day 0, Assay LOQ = 100 GE/reaction) was 0.00E+00 GE/mL and the “qRT-PCR Assay Result” value (animal R12, Day 1) was “Negative”. For the same molecule, the “qRT-PCR Assay Average GE/mL” value (animal R12, Day 1, Assay LOQ = 100 GE/reaction) was 0.00E+00 GE/mL, the “qRT-PCR Assay Result” value (animal R12, Day 2) was “Negative” and the “qRT-PCR Assay Average GE/mL” value (animal R12, Day 2, Assay LOQ = 100 GE/reaction) was 0.00E+00 GE/mL. The “qRT-PCR Assay Result” value (animal R12, Day 3) was “Negative”, the “qRT-PCR Assay Average GE/mL” value (animal R12, Day 3, Assay LOQ = 100 GE/reaction) was 0.00E+00 GE/mL and the “qRT-PCR Assay Result” value (animal R12, Day 4) was “Negative”. The “qRT-PCR Assay Average GE/mL” value (animal R12, Day 4, Assay LOQ = 100 GE/reaction) was 0.00E+00 GE/mL, the “qRT-PCR Assay Result” value (animal R12, Day 5) was “Negative” and the “qRT-PCR Assay Average GE/mL” value (animal R12, Day 5, Assay LOQ = 100 GE/reaction) was 0.00E+00 GE/mL. The “qRT-PCR Assay Result” value (animal R12, Day 6) was “Negative”, the “qRT-PCR Assay Average GE/mL” value (animal R12, Day 6, Assay LOQ = 100 GE/reaction) was 0.00E+00 GE/mL and the “qRT-PCR Assay Result” value (animal R12, Day 7) was “Negative”. For the same molecule, the “qRT-PCR Assay Average GE/mL” value (animal R12, Day 7, Assay LOQ = 100 GE/reaction) was 0.00E+00 GE/mL, the “qRT-PCR Assay Result” value (animal R12, Day 8) was “Negative” and the “qRT-PCR Assay Average GE/mL” value (animal R12, Day 8, Assay LOQ = 100 GE/reaction) was 0.00E+00 GE/mL. For the same molecule, the “qRT-PCR Assay Result” value (animal R12, Day 9) was “Negative”, the “qRT-PCR Assay Average GE/mL” value (animal R12, Day 9, Assay LOQ = 100 GE/reaction) was 0.00E+00 GE/mL and the “qRT-PCR Assay Result” value (animal R12, Day 10) was “Negative”. For the same molecule, the “qRT-PCR Assay Average GE/mL” value (animal R12, Day 10, Assay LOQ = 100 GE/reaction) was 0.00E+00 GE/mL, the “qRT-PCR Assay Result” value (animal R12, Day 11) was “Negative” and the “qRT-PCR Assay Average GE/mL” value (animal R12, Day 11, Assay LOQ = 100 GE/reaction) was 0.00E+00 GE/mL. For the same molecule, the “qRT-PCR Assay Result” value (animal R12, Day 14) was “Negative”, the “qRT-PCR Assay Average GE/mL” value (animal R12, Day 14, Assay LOQ = 100 GE/reaction) was 0.00E+00 GE/mL and the “qRT-PCR Assay Result” value (animal R12, Day 29) was “Negative”. For the same molecule, the “qRT-PCR Assay Average GE/mL” value (animal R12, Day 29, Assay LOQ = 100 GE/reaction) was 0.00E+00 GE/mL.
